This note sets out measurements from ChEMBL document CHEMBL1137424, “Array synthesis of progesterone receptor antagonists: 3-aryl-1,2-diazepines” (Bioorg Med Chem Lett, 2006).

For orientation: Ki means a measure of affinity in units of concentration, obtained from inhibition or displacement. Higher therefore signals lower affinity. Broadly, the IC50 is the concentration that gives 50% inhibition. Low values mean inhibition by little substance, high ones a need for much substance.

For assay [1], the target named is T1, Progesterone receptor (Homo sapiens, UniProt P06401).
T1 sequence (P06401 whole entry): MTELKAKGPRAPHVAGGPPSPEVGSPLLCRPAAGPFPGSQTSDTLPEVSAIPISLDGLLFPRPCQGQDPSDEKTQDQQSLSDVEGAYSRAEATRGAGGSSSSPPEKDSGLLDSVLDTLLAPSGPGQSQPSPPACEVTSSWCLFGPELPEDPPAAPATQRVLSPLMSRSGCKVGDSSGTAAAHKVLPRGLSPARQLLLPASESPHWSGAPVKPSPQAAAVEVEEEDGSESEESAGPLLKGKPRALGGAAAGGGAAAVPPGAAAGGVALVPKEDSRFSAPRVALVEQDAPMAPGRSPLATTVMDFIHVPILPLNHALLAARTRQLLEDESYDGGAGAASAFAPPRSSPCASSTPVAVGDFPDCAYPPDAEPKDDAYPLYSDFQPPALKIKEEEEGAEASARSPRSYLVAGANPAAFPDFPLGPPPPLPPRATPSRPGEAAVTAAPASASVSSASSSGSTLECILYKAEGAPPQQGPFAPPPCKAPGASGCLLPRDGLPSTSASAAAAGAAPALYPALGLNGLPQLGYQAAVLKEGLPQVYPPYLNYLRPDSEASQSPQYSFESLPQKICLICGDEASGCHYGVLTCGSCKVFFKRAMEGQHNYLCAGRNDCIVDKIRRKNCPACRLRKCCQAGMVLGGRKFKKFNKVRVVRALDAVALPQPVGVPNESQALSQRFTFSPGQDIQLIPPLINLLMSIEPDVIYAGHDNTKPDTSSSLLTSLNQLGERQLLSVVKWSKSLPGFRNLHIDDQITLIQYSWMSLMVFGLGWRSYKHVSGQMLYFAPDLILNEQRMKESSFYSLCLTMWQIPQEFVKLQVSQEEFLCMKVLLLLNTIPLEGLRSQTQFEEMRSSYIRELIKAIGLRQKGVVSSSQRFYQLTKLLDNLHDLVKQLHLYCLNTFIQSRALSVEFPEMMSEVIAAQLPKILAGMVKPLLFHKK
The experiment in a line: Binding affinity at PR by fluorescence binding assay.

The target in assay [2] is T1, Progesterone receptor. The experiment in a line: Antagonist activity against PR beta-mediated transactivation of MMTV luciferase reporter gene in BacMam transduced progesterone-stimulated CV1 cells. In kind it is functional, cell-based, CV-1.

Molecules are shown by their SMILES.

At Progesterone receptor [1], `O=S(=O)(c1ccc(Cl)s1)N1CCCCC(c2ccc(Cl)c(Cl)c2)=N1` showed a Ki of 0.0398 µM.

In turn, `O=S(=O)(c1ccc(Cl)cc1)N1CCCCC(c2cccc(F)c2)=N1` had a Ki on Progesterone receptor [1] of 0.794 µM. Moreover, at Progesterone receptor [2], half-maximal inhibition (IC50) was put at 0.501 µM.

With `N#Cc1ccc(C2=NN(S(=O)(=O)c3ccc(Br)s3)CCCC2)cc1`, the inhibition constant Ki at Progesterone receptor [1] was 0.0631 µM.

Take `O=S(=O)(c1ccc(Cl)cc1Cl)N1CCCCC(c2ccc(Cl)c(Cl)c2)=N1`: at Progesterone receptor [1], the Ki is 0.0501 µM. The IC50 against Progesterone receptor [2] is 0.2 µM.

Consider `Cc1c(Cl)cccc1S(=O)(=O)N1CCCCC(c2cccc(Cl)c2)=N1`, for which the Ki at Progesterone receptor [1] is 0.316 µM. This compound had a half-inhibitory concentration (IC50) against Progesterone receptor [2] of 2 µM.

On Progesterone receptor [1], `N#Cc1ccc(C2=NN(S(=O)(=O)c3ccccc3F)CCCC2)cc1` gave a Ki of 1 µM. Also, it took 0.398 µM to reach half-maximal inhibition at Progesterone receptor [2] (IC50).

`O=S(=O)(c1cccc(Cl)c1)N1CCCCC(c2ccc(Cl)cc2)=N1` had an inhibitory constant (Ki) on Progesterone receptor [1] of 0.631 µM. Besides, the IC50 at Progesterone receptor [2] was 1.26 µM.

At Progesterone receptor [1], `O=S(=O)(c1ccc(Cl)s1)N1CCCCC(c2ccccc2Cl)=N1` gave a Ki of 0.2 µM. Besides, the 50% inhibitory concentration (IC50) at Progesterone receptor [2] is 0.631 µM.

The compound `O=[N+]([O-])c1ccc(C2=NN(S(=O)(=O)c3ccc(OC(F)(F)F)cc3)CCCC2)cc1` showed a Ki on Progesterone receptor [1] of 0.0501 µM. This compound showed an IC50 against Progesterone receptor [2] of 0.158 µM.

`O=S(=O)(c1ccc(Br)s1)N1CCCCC(c2cccc(Br)c2)=N1` gave a Ki on Progesterone receptor [1] of 0.0631 µM. This compound had a half-inhibitory concentration (IC50) at Progesterone receptor [2] of 0.251 µM.

On Progesterone receptor [1], `O=S(=O)(c1ccc(Br)s1)N1CCCCC(c2ccc(Cl)c(Cl)c2)=N1` gave a Ki of 0.0251 µM. The compound also gave an IC50 against Progesterone receptor [2] of 0.316 µM.
